Test results published in patent US5612474A, “Acid labile immunoconjugate intermediates” (Eli Lilly and Company, priority 1994, dated 1997).
Values after ≈ are worked out from the molar mass of the structure shown. Each block holds one compound with its values, some of them ahead of it.

Assays:
[1] = system: LS-174T human colon carcinoma; experiment: Cytotoxicity assay of immunoconjugates, 3H-leucine uptake, 48 hours; format: cell-based; conditions: LS174T, LS 174T cells, 48 hours incubation, concentrations in terms of drug contained in conjugate
From the text: Table III uses several abbreviations which are defined as follows. The terms D612, COL-1, CC83, and CC49 refer to specific murine monoclonal antibodies which are described in detail in the Antibody section of the Detailed Description. […] "CR#" is an abbreviation for conjugation ratio. "MIR" refers to the molar input ratio of the linker-drug relative to the antibody.

CCRF-CEM cells = experiment: In vitro antitumor activity / growth inhibition of CCRF-CEM cells, 72 hours; format: cell-based; conditions: Homo sapiens, serum-free UltraCHO media, read-out: IC50 (50% inhibition of growth)
Protocol: The in vitro data were obtained using CCRF-CEM cells, a human leukemia cell line. Foley et al., Cancer, 18:522 (1965). These cells were grown in albumin-free UltraCHO® media (BioWhittaker, Inc., Walkersville, Md.) using standard techniques. See, e.g., G. B. Grindey, et al., Journal of Molecular Pharmacology, 16:601 (1979). Dose-response curves were generated for various compounds to determine the concentration required for 50% inhibition of growth (IC50). Cluster plates were prepared in duplicate with the compound at various concentrations. Test compounds were dissolved initially in DMSO at a concentration of 4 mg/ml and further diluted with solvent to the desired concentration. Cells in serum-free UltraCHO media were added to the well at a final concentration of 4.8×10^4 cells/well in a total volume of 2.0 ml. After 72 hours of incubation (95% air, 5% CO2), cell numbers were determined on a ZBI Coulter counter. Cell number for indicated controls at the end of incubation was usually (4-6)×10^5 cells/well. Cell viability was also measured by staining with 3-[4,5-dimethylthiazol-2-yl]-2,5-diphenyl-tetrazolium bromide (MTT) using standard techniques. R. I. Freshhey, Culture of Animal Cells: A Manual of Basic Technique, 253-354 (2d ed. 1987).
Column 1 refers to the example number of the compound tested; Column 2 depicts the in vitro cytoxicity against CCRF-CEM cells by relating the concentration of the test compound required for 50% inhibition of growth (IC50) of the cells in the well.

[2] = system: HC-1 human colon carcinoma xenograft; experiment: Antitumor activity against HC-1 human colon carcinoma xenografts in nude mice; format: in vivo, human tumor in CD1 Nu/Nu mice; conditions: for Activity (overall): overall activity over all doses
From the text: One of the tumor models used for showing the anti-neoplastic activity of the prodrugs of this invention were the human colon xenografts, HC-1 human colon xenograft. This tumor model was obtained from the Division of Cancer Treatment, National Cancer Institute, Tumor Bank.
First passage tumors were stored in liquid nitrogen, using standard techniques. The transplanted tumor was reestablished from the Tumor Bank every six months or as needed. The tumor was maintained by serial passage twice weekly in nude mice.
In the procedures utilized here, the tumor was removed from passage animals and minced into 1- to 3-mm cubic fragments using sterile techniques. Tumor pieces were checked for sterility using both Antibiotic Medium 1 and Brain Heart Infusion (Difco, Detroit, Mich.). The xenograft tumor pieces were implanted into the recipient CD1 Nu/Nu mice subcutaneously in an axillary site by trochar.
Drug therapy on the appropriate schedule was initiated 14 days after tumor implantation for the mice bearing the xenograft tumors. The compound being tested was mixed with 2.5% Emulphor EL620 from GAP Corporation (1:40 dilution in 0.9% saline). The total dosage volume for each administration was 0.5 ml. All animals were weighed at the beginning and end of administration of the subject compounds. Food and water were provided ad libitum.
Each control group and each dosage level of the treated groups consisted of 9 or 10 mice selected at random from the pool of implanted animals. The formulations were administered intraperitoneally. Compounds were dosed on days 1, 4, 7, and 10 for all prodrugs except for MMeT which was dosed on days 1,5, and 9.
The tumor was measured five days after treatment ended with two dimensional measurements (width and length) of the tumor taken using digital electronic calipers interfaced to a microcomputer. J. P. Worzalla, et al., Investigational New Drugs, 8:241-251 (1990). Tumor weights were calculated from these measurements using the following formula: [formula] At least one control group of an equal number of mice was treated with the same volume of 2.5% Emulphor only. The percent inhibition is determined by subtracting the ratio of the mean tumor size of the test group relative to the control group from one and multiplying the result by 100.
The results of several experiments in mice bearing the HC-1 human colon carcinoma when the Formula III compounds were administered orally are provided in Table V. Row 1 describes the particular compound being tested. Row 15 describes the overall activity of the compound. Column 1 gives the dosage level of the compound of Formula III and ADDFA in mg/kg. The second column gives the percent inhibition of tumor growth by the ADDFA given systemically. Colums 3 through 7 gives the percent inhibition of tumor growth of the compounds of Formula III.

[3] = Cardiotoxicity / toxicity of free drug versus trityl prodrug (no method described); conditions: for use in oncolytic therapy
[4] = Release studies: rate of free drug release from isopropylamide linker-drug by NMR; format: physicochemical
Protocol: The isopropylamide linker-drug (2 mg) was dissolved in 0.3 ml of dry deuterated methanol (CD3 OD). A solution of potassium phosphate buffer in deuteratured water (D2 O) (0.2 ml) of appropriate pH was added. The resulting solution was transferred to an NMR tube and heated at 37° C. and NMR spectra were recorded periodically. The rate of appearance of free drug and the rate of disappearance of the starting material were calculated from the peak integrals at: […]
NMR spectra (CD3 OD/0.1M KD2 PO4)

[5] = pH 5.40, CD3OD/0.1M KD2PO4, 37° C.
[6] = pH 6.40, CD3OD/0.1M KD2PO4, 37° C.
[7] = pH 7.40, CD3OD/0.1M KD2PO4, 37° C., extrapolated

Compound: Nc1nc(N)c2ncn([C@@H]3O[C@H](CO)[C@@H](O)C3(F)F)c2n1 [ADDFA, 2-Amino-2'-deoxy-2',2'-difluoroadenosine, reference compound]
IC50 [1]: 0.26 µg/mL (≈ 0.86 µM)
IC50 (CCRF-CEM cells): 0.024 µg/mL (≈ 0.0794 µM)
Percent Inhibition ([2]; 17.5 mg/kg): 100%
Percent Inhibition ([2]; 20.0 mg/kg): 100%
Percent Inhibition ([2]; 25.0 mg/kg): 100%
Percent Inhibition ([2]; 32.5 mg/kg): 100%
Percent Inhibition ([2]; 35.0 mg/kg): 100%
Percent Inhibition ([2]; 40.0 mg/kg): 100%
Percent Inhibition ([2]; 50.0 mg/kg): 100%
Percent Inhibition ([2]; 65.0 mg/kg): 100%
Percent Inhibition ([2]; 70.0 mg/kg): 100%
Percent Inhibition ([2]; 80.0 mg/kg): 100%
Percent Inhibition ([2]; 100.0 mg/kg): 100%
Percent Inhibition ([2]; 130.0 mg/kg): 100%
Activity (overall) [2]: +++ (95-100% Inhibition)
cardiotoxicity [3]: too much cardiotoxicity

t1/2 [4, 5]: 3.71 h
t1/2 [4, 6]: 14.8 h
t1/2 ([4]; pH 7.40, CD3OD/0.1M KD2PO4, 37° C.): 146.3 h
IC50 (CCRF-CEM cells): 0.078 µg/mL (≈ 0.113 µM)
Compound: COc1ccc(C(Nc2nc(N)nc3c2ncn3[C@@H]2O[C@H](CO)[C@@H](O)C2(F)F)(c2ccc(OC)cc2)c2ccc(C(=O)NC(C)C)cc2)cc1 [DMT, N-Isopropyl-4-[bis-(4-methoxyphenyl)-6-N-[2-amino-9-(2'-deoxy-2',2'-difluoro-β-ribofuranosyl)purinyl]methyl]benzamide]
Percent Inhibition ([2]; 25.0 mg/kg): 97%
Percent Inhibition ([2]; 50.0 mg/kg): 99%
Percent Inhibition ([2]; 100.0 mg/kg): 99%
Activity (overall) [2]: +++ (95-100% Inhibition)

t1/2 [4, 5]: 16.7 h
t1/2 ([4]; pH 6.40, CD3OD/0.1M KD2PO4, 37° C., extrapolated): 547 h
t1/2 [4, 7]: 800 h
IC50 (CCRF-CEM cells): 0.1 µg/mL (≈ 0.152 µM)
Compound: COc1ccc(C(Nc2nc(N)nc3c2ncn3[C@@H]2O[C@H](CO)[C@@H](O)C2(F)F)(c2ccccc2)c2ccc(C(=O)NC(C)C)cc2)cc1 (stereo partly shown) [MMT]
Percent Inhibition ([2]; 32.5 mg/kg): 95%
Percent Inhibition ([2]; 65.0 mg/kg): 96%
Percent Inhibition ([2]; 130.0 mg/kg): 93%
Activity (overall) [2]: +++ (95-100% Inhibition)

IC50 (CCRF-CEM cells): 0.1 µg/mL (≈ 0.148 µM)
Compound: COc1ccc(C(Nc2nc(N)nc3c2ncn3[C@@H]2O[C@H](CO)[C@@H](O)C2(F)F)(c2ccc(C)cc2)c2ccc(C(=O)NC(C)C)cc2)cc1 (stereo partly drawn) [MMeT, N-Isopropyl-4-[4-methoxyphenyl-4'methylphenyl-6-N-[2-amino-9-(2'-deoxy-2',2'-difluoro-β-ribofuranosyl)purinyl]methyl]benzamide]
Percent Inhibition ([2]; 20.0 mg/kg): 95%
Percent Inhibition ([2]; 40.0 mg/kg): 98%
Percent Inhibition ([2]; 80.0 mg/kg): 98%
Activity (overall) [2]: +++ (95-100% Inhibition)

IC50 (CCRF-CEM cells): 0.8 µg/mL (≈ 1.24 µM)
Compound: Cc1ccc(C(Nc2nc(N)nc3c2ncn3[C@@H]2O[C@H](CO)[C@@H](O)C2(F)F)(c2ccccc2)c2ccc(C(=O)NC(C)C)cc2)cc1 (stereo partly shown) [MeT]
Percent Inhibition ([2]; 20.0 mg/kg): 41%
Percent Inhibition ([2]; 40.0 mg/kg): 58%
Percent Inhibition ([2]; 80.0 mg/kg): 92%
Activity (overall) [2]: ++ (80-94% Inhibition)

IC50 (CCRF-CEM cells): 1.7 µg/mL (≈ 2.7 µM)
Compound: CC(C)NC(=O)c1ccc(C(Nc2nc(N)nc3c2ncn3[C@@H]2O[C@H](CO)[C@@H](O)C2(F)F)(c2ccccc2)c2ccccc2)cc1 [T, N-Isopropyl-4-[bis-phenyl-6-N-[2-amino-9-(2'-deoxy-2',2'-difluoro-β-ribofuranosyl)purinyl]methyl]benzamide]
fragmentation under pH conditions used ([4]; pH 5.40, 6.40, 7.40, up to t = 800): no fragmentation
Percent Inhibition ([2]; 17.5 mg/kg): 14%
Percent Inhibition ([2]; 35.0 mg/kg): 28%
Percent Inhibition ([2]; 70.0 mg/kg): 04%
Activity (overall) [2]: - (<60% Inhibition)

t1/2 [4, 5]: 2.35 h
t1/2 [4, 6]: 23.3 h
t1/2 [4, 7]: 133.3 h
IC50 (CCRF-CEM cells): 0.084 µg/mL (≈ 0.122 µM)
Compound: COc1ccc(C(Nc2nc(N)nc3c2ncn3[C@@H]2O[C@H](CO)[C@@H](O)C2(F)F)(c2ccc(OC)cc2)c2cccc(C(=O)NC(C)C)c2)cc1 [mDMT, N-Isopropyl-3-[bis-(4-methoxyphenyl)-6-N-[2-amino-9-(2'-deoxy-2',2'-difluoro-β-ribofuranosyl)purinyl]methyl]benzamide]
